Results from patent US5620975A, “Pharmaceutical composition and method for the control of hypertension” (Hoffmann-La Roche Inc., priority 1991, dated 1997).
Where a name gives a salt, the structure may show the parent alone.

Assays:
Bioavailability = conditions: in vivo
[1] = tested on: media of the right carotid artery; assay: Cross-section surface (area) of the media of the carotid artery in rats after 15 days of treatment; assay type: in vivo, rat (male, strain RoRo); conditions: rat carotid artery; for area of the media: cilazapril 10 mg/kg daily in feed, Compound A 30 mg/kg by probang, control 89000±5000 μm^2, combination p<0.05 (Student t-test); for effect of individual treatment on media area: result in words
Protocol: The influence of the individual compounds and their combination on the blood vessels was investigated in rats. Male rats, strain: RoRo (weight about 400 g; aged 4-5 months; Institut fur Biologisch-Medizinische Forschung, Fullinsdorf, CH) were used. The animals were divided randomly into a control group and into treatment groups. The duration of the treatment was 15 days. Cilazapril was admixed with the feed in an amount such that the daily intake was on average 10 mg/kg and Compound A (30 mg/kg) was administered using a probang. The control animals received the same laboratory feed without additive.
After 15 days, the rats were anaesthetized with ether and the carotid artery was fixed by perfusion with fixative agent (2.5% glutaraldehyde in 0.1M phosphate buffer, pH 7.4). For this, a probe was passed through the left ventricle of the heart into the ascending aorta (inflow) and a second probe was pushed through the right ventricle into the auricle (discharge).The vascular system was firstly rinsed with 10 ml of buffered isotonic NaCl solution and then fixed for 15 minutes with fixative at a pressure of 11.7 kPa. Subsequently, the right carotid artery was dissected, freed from adhering tissue and placed in 2.5% glutaraldehyde for further fixation. Each artery was divided into five vascular segments from the distal end to the proximal end, dehydrated and embedded in EPON 12 (Registered Mark of Shell A.G.). The middle segment was used for the morphological investigations. Semi-thin cross-sections (1 μm thick) were colored with toluidine blue and basic fuchsin. The cross-section surface of the media was measured with the morphometry system DIASYS (Datalab, Heinz Meyer, CH-3367 Thorigen).

[2] = tested on: conscious dogs having renal hypertension; assay: Blood pressure (MAP, telemetry) in conscious dogs having renal hypertension; assay type: in vivo, dog (German sheepdogs); conditions: FIG. 1, conscious renal hypertensive dogs
Protocol: The antihypertensive effect of the combination was investigated in conscious dogs having renal hypertension. The hypertension was produced in German sheepdogs (weight 23-30 kg) using known methods in which one kidney is wrapped with cellophane and a stenosis is formed in the renal artery of the contralateral kidney using an occluder. The blood pressure was measured with a catheter implanted in the abdominal aorta and connected to a transmitter in the abdominal, cavity (telemetry). FIG. 1 illustrates the effect of cilazapril (10 mg/kg per os) and Compound A (30 mg/kg per os) alone, as well as, the effect of the simultaneous administration of the same dosages of the two substances (n=3 dogs for cilazapril and the combination, n=4 dogs for Compound A).

bioavailability (Bioavailability) | Structure (SMILES) | area of the media [1] | effect of individual treatment on media area [1] | lowering of blood pressure (MAP) ([2]; Compound A 30 mg/kg per os alone, n=4) | effect on blood pressure (MAP) ([2]; cilazapril 10 mg/kg per os, Compound A 30 mg/kg per os, alone or simultaneously, result in words)
80 to 100% | COCC(=O)OC1(CCN(C)CCCc2nc3ccccc3[nH]2)CCc2cc(F)ccc2C1C(C)C (centres unmarked) [Compound A, [1S,2S]-2-[2-[[3-(2-benzimidazolyl)propyl]methylamino]ethyl]-6-fluoro-1,2,3,4-tetrahydro-1-isopropyl-2-naphthylmethoxyacetate dihydrochloride] | 87000±4000 μm^2 | without effect | 10-20 mmHg | –
70% | CCOC(=O)[C@H](CCc1ccccc1)N[C@H]1CCCN2CCC[C@@H](C(=O)O)N2C1=O [cilazapril, 9(S)-[1(S)-ethoxycarbonyl-3-phenylpropylamino]octahydro-10-oxo-6H-pyridazo[1,2-a][1,2]diazepine-1(S)-carboxylic acid] | 84000±11000 μm^2 | without effect | – | without effect
